Source: patent US12098144B2, “Piperazine indazole glucocorticoid receptor antagonists” (Corcept Therapeutics Incorporated, priority 2021, dated 2024)

Target: T1, glucocorticoid receptor (Homo sapiens, UniProt P04150)
T1 construct: endogenous in cells; ATCC cat
T1 sequence (P04150 1-777): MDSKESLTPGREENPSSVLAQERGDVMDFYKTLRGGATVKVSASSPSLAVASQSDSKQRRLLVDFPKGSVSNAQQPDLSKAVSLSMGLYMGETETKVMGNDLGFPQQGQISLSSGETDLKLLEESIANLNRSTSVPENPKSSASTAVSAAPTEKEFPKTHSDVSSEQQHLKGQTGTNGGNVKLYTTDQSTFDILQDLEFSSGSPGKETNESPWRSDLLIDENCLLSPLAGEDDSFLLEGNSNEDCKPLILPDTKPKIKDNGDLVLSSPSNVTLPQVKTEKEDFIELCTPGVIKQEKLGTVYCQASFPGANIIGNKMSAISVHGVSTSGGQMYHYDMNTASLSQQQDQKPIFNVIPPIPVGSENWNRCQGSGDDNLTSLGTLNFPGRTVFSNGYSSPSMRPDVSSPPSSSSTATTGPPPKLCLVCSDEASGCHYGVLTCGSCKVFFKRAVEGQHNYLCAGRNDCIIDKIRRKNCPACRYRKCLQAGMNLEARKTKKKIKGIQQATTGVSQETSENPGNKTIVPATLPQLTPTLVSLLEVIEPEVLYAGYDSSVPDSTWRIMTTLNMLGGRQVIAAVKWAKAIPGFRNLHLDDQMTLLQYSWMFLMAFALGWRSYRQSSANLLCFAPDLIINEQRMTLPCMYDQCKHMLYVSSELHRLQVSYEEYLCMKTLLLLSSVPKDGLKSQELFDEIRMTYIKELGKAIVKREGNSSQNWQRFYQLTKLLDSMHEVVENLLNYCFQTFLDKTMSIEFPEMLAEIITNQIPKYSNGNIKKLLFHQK
Test: Hep G2 TAT Ki: inhibition of dexamethasone-induced TAT in HepG2 cells (96 well)
Assay type: cell-based
Details: challenge of 100 nM dexamethasone, IC50 converted to Ki by Cheng and Prusoff equation
In short: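 Cells lysed 15 min at 4 °C; TAT enzyme reaction 2 h at 37 °C, stopped with KOH, 30 min further at 37 °C. Inhibition fitted to 4-parameter logistic.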

Structure (SMILES) | Ki [µM]
Cc1cc2c(cnn2-c2ccc(F)cc2)cc1C1CN(S(=O)(=O)c2cnccc2C)CCN1CCC(F)(F)F (single isomer, unassigned) [Example 138, 1-(4-fluorophenyl)-6-methyl-5-(4-((4-methylpyridin-3-yl)sulfonyl)-1-(3,3,3-trifluoropropyl)piperazin-2-yl)-1H-indazole] | 0.035
Cc1cc2c(cnn2-c2ccc(F)cc2)cc1C1CN(S(=O)(=O)C2CCC2)CCN1CCC(F)(F)F (single isomer, unassigned) [Example 140, 5-(4-(cyclobutylsulfonyl)-1-(3,3,3-trifluoropropyl)piperazin-2-yl)-1-(4-fluorophenyl)-6-methyl-1H-indazole] | 0.047
CCn1cc(S(=O)(=O)N2CCN(CC(C)C(F)(F)F)C(c3cc4cnn(-c5ccc(F)cc5)c4cc3C)C2)cn1 (single isomer, unassigned) [Example 144, 5-(4-((1-ethyl-1H-pyrazol-4-yl)sulfonyl)-1-(3,3,3-trifluoro-2-methylpropyl)piperazin-2-yl)-1-(4-fluorophenyl)-6-methyl-1H-indazole] | 0.015
Cc1cc2c(cnn2-c2ccc(F)cc2)cc1C1CN(S(=O)(=O)c2cccnc2)CCN1CC(C)C(F)(F)F (single isomer, unassigned) [Example 145, 1-(4-fluorophenyl)-6-methyl-5-(4-(pyridin-3-ylsulfonyl)-1-(3,3,3-trifluoro-2-methylpropyl)piperazin-2-yl)-1H-indazole] | 0.0085
Cc1nc(S(=O)(=O)N2CCN(CC(C)C(F)(F)F)C(c3cc4cnn(-c5ccc(F)cc5)c4cc3C)C2)cs1 (single isomer, unassigned) [Example 146, 4-((3-(1-(4-fluorophenyl)-6-methyl-1H-indazol-5-yl)-4-(3,3,3-trifluoro-2-methylpropyl)piperazin-1-yl)sulfonyl)-2-methylthiazole] | 0.0075
Cc1ncc(S(=O)(=O)N2CCN(CC(C)C(F)(F)F)C(c3cc4cnn(-c5ccc(F)cc5)c4cc3C)C2)s1 (single isomer, unassigned) [Example 147, 5-((3-(1-(4-fluorophenyl)-6-methyl-1H-indazol-5-yl)-4-(3,3,3-trifluoro-2-methylpropyl)piperazin-1-yl)sulfonyl)-2-methylthiazole] | 0.011
CCn1ncc(S(=O)(=O)N2CCN(CC(C)C(F)(F)F)C(c3cc4cnn(-c5ccc(F)cc5)c4cc3C)C2)n1 (single isomer, unassigned) [Example 148, 5-(4-((2-ethyl-2H-1,2,3-triazol-4-yl)sulfonyl)-1-(3,3,3-trifluoro-2-methylpropyl)piperazin-2-yl)-1-(4-fluorophenyl)-6-methyl-1H-indazole] | 0.038
Cc1cc2c(cnn2-c2ccc(F)cc2)cc1C1CN(S(=O)(=O)c2cnccc2C)CCN1CC(C)C(F)(F)F (single isomer, unassigned) [Example 149, 1-(4-fluorophenyl)-6-methyl-5-(4-((4-methylpyridin-3-yl)sulfonyl)-1-(3,3,3-trifluoro-2-methylpropyl)piperazin-2-yl)-1H-indazole] | 0.056
Cc1cc2c(cnn2-c2ccc(F)cc2)cc1C1CN(S(=O)(=O)c2ccccn2)CCN1CC(C)C(F)(F)F (single isomer, unassigned) [Example 150, 1-(4-fluorophenyl)-6-methyl-5-(4-(pyridin-2-ylsulfonyl)-1-(3,3,3-trifluoro-2-methylpropyl)piperazin-2-yl)-1H-indazole] | 0.019
Cc1cc2c(cnn2-c2ccc(F)cc2)cc1C1CN(S(=O)(=O)C2CCC2)CCN1CC(C)C(F)(F)F (single isomer, unassigned) [Example 151, 5-(4-(cyclobutylsulfonyl)-1-(3,3,3-trifluoro-2-methylpropyl)piperazin-2-yl)-1-(4-fluorophenyl)-6-methyl-1H-indazole] | 0.035
Cc1cc2c(cnn2-c2ccc(F)cc2)cc1C1CN(S(=O)(=O)c2cnn(C)n2)CCN1CC(C)(F)F (single isomer, unassigned) [Example 157, 5-(1-(2,2-difluoropropyl)-4-((2-methyl-2H-1,2,3-triazol-4-yl)sulfonyl)piperazin-2-yl)-1-(4-fluorophenyl)-6-methyl-1H-indazole] | 0.043
Cc1cc2c(cnn2-c2ccc(F)cc2)cc1C1CN(S(=O)(=O)c2cnn(C)n2)CCN1CC1CC1(F)F (single isomer, unassigned) [Example 160, 5-(1-((2,2-difluorocyclopropyl)methyl)-4-((2-methyl-2H-1,2,3-triazol-4-yl)sulfonyl)piperazin-2-yl)-1-(4-fluorophenyl)-6-methyl-1H-indazole] | 0.032
Cc1cc2c(cnn2-c2ccc(F)cc2)cc1C1CN(S(=O)(=O)c2cnn(C)n2)CCN1CC(C)(C)C (single isomer, unassigned) [Example 161, 1-(4-fluorophenyl)-6-methyl-5-(4-((2-methyl-2H-1,2,3-triazol-4-yl)sulfonyl)-1-neopentylpiperazin-2-yl)-1H-indazole] | 0.057
Cc1cc2c(cnn2-c2ccc(F)c(C#N)c2)cc1C1CN(S(=O)(=O)c2cnn(C)n2)CCN1CCC(F)(F)F (single isomer, unassigned) [Example 169, 2-fluoro-5-(6-methyl-5-(4-((2-methyl-2H-1,2,3-triazol-4-yl)sulfonyl)-1-(3,3,3-trifluoropropyl)piperazin-2-yl)-1H-indazol-1-yl)benzonitrile] | 0.066
Cc1cc2c(cnn2-c2ccc(F)c(C#N)c2)cc1C1CN(S(=O)(=O)c2cnn(C)n2)CCN1CCC(F)(F)F (single isomer, unassigned) [Example 170, 2-fluoro-5-(6-methyl-5-(4-((2-methyl-2H-1,2,3-triazol-4-yl)sulfonyl)-1-(3,3,3-trifluoropropyl)piperazin-2-yl)-1H-indazol-1-yl)benzonitrile] | 0.091

More lines, in order of falling Ki, values ahead:

Ki [µM] | Structure (SMILES)
0.057 | COCCn1cc(S(=O)(=O)N2CCN(CCC(F)(F)F)C(c3cc4cnn(-c5ccc(F)cc5)c4cc3C)C2)cn1 (single isomer, unassigned) [Example 136, 1-(4-fluorophenyl)-5-(4-((1-(2-methoxyethyl)-1H-pyrazol-4-yl)sulfonyl)-1-(3,3,3-trifluoropropyl)piperazin-2-yl)-6-methyl-1H-indazole]
0.044 | Cc1cc2c(cnn2-c2ccc(F)cc2)cc1C1CN(S(=O)(=O)c2cnn(C)n2)CCN1CC(C)(C)C(F)(F)F (single isomer, unassigned) [Example 163, 1-(4-fluorophenyl)-6-methyl-5-(4-((2-methyl-2H-1,2,3-triazol-4-yl)sulfonyl)-1-(3,3,3-trifluoro-2,2-dimethylpropyl)piperazin-2-yl)-1H-indazole]
0.037 | Cc1cc2c(cnn2-c2ccc(F)cc2)cc1C1CN(S(=O)(=O)c2ccccn2)CCN1CCC(F)(F)F (single isomer, unassigned) [Example 139, 1-(4-fluorophenyl)-6-methyl-5-(4-(pyridin-2-ylsulfonyl)-1-(3,3,3-trifluoropropyl)piperazin-2-yl)-1H-indazole]
0.033 | Cc1cc2c(cnn2-c2ccc(F)cc2)cc1C1CN(S(=O)(=O)CC(C)C)CCN1CCC(F)(F)F (single isomer, unassigned) [Example 137, 1-(4-fluorophenyl)-5-(4-(isobutylsulfonyl)-1-(3,3,3-trifluoropropyl)piperazin-2-yl)-6-methyl-1H-indazole]
0.028 | Cc1cc2c(cnn2-c2ccc(F)cc2)cc1C1CN(S(=O)(=O)c2cnn(C)n2)CCN1CC1CC(F)C1 (single isomer, unassigned) [Example 156, 5-(1-((3-fluorocyclobutyl)methyl)-4-((2-methyl-2H-1,2,3-triazol-4-yl)sulfonyl)piperazin-2-yl)-1-(4-fluorophenyl)-6-methyl-1H-indazole]
0.025 | Cc1cc2c(cnn2-c2ccc(F)cc2)cc1C1CN(S(=O)(=O)c2ccc(C#N)cc2)CCN1CC(C)C(F)(F)F (single isomer, unassigned) [Example 143, 4-((3-(1-(4-fluorophenyl)-6-methyl-1H-indazol-5-yl)-4-(3,3,3-trifluoro-2-methylpropyl)piperazin-1-yl)sulfonyl)benzonitrile]
0.014 | Cc1cc2c(cnn2-c2ccc(F)cc2)cc1C1CN(S(=O)(=O)c2cnn(C)c2)CCN1CC(C)C(F)(F)F (single isomer, unassigned) [Example 141, 1-(4-fluorophenyl)-6-methyl-5-(4-((1-methyl-1H-pyrazol-4-yl)sulfonyl)-1-(3,3,3-trifluoro-2-methylpropyl)piperazin-2-yl)-1H-indazole]
0.013 | Cc1cc2c(cnn2-c2ccc(F)cc2)cc1C1CN(S(=O)(=O)c2cnn(C)c2C)CCN1CC(C)C(F)(F)F (single isomer, unassigned) [Example 142, 5-(4-((1,5-dimethyl-1H-pyrazol-4-yl)sulfonyl)-1-(3,3,3-trifluoro-2-methylpropyl)piperazin-2-yl)-1-(4-fluorophenyl)-6-methyl-1H-indazole]
